Test results: paper PMC7023430, “4-Aminobenzoic Acid Derivatives: Converting Folate Precursor to Antimicrobial and Cytotoxic Agents” (Biomolecules, 2019)
In brackets after ≈: the same amount, converted by molar mass. Read-outs that look alike come from different tables or passages of the source.

Assays:
[1] = system: Pseudomonas aeruginosa ATCC 27853, CCM 3955; test: Antibacterial microdilution broth method, P. aeruginosa; type: cell-based; settings: Pseudomonas aeruginosa
[2] = system: Mycobacterium tuberculosis H37Rv (331/88); test: Antimycobacterial micromethod in Šula's medium, M. tuberculosis; type: cell-based
[3] = system: Klebsiella pneumoniae D 11750/08; test: Antibacterial microdilution broth method, K. pneumoniae; settings: K. pneumoniae D 11750/08; for MIC KP 24 h: 24 h incubation; for MIC KP 48 h: 48 h incubation
Candida tropicalis 156 = test: Antifungal microdilution broth method, C. tropicalis; type: cell-based
Outline: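 MICs were scored by eye in duplicate runs, accepted when the two differed by no more than one twofold step. Medium was RPMI-1640 (L-glutamine, 2% glucose) buffered with MOPS at pH 7.0, with DMSO-dissolved compounds serially halved per modified EUCAST protocol.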

[4] = system: Staphylococcus aureus ATCC 29213, CCM 4223; test: Antibacterial microdilution broth method, S. aureus; type: cell-based
eight fungal strains = test: Antifungal activity; type: cell-based; settings: statement over the fungal panel; time not stated
Method: The antifungal properties were evaluated against five yeast strains, namely: Candida albicans ATCC 44859, Candida tropicalis 156, Candida krusei […], Candida glabrata 20/I, Trichosporon […] 1188 and three strains of filamentous fungi: Aspergillus fumigatus 231, Lichtheimia corymbifera 272, and Trichophyton interdigitale 445. A microdilution broth method was performed according to EUCAST II, III instructions with slight modifications. Briefly, tested compounds were dissolved in DMSO and diluted in a twofold manner with RPMI-1640 medium with L-glutamine, supplemented with 2% glucose (w/v) and buffered to pH 7.0 with 3 morpholinopropane-1-sulfonic acid (all components were purchased from Sigma-Aldrich, USA). […] Positive controls consisted of test microbe solely, while negative controls consisted of medium and DMSO. Internal quality control was included too. Visual inspection was used for MIC endpoints evaluation. The experiments were conducted in duplicates. For the results to be valid, the difference in MIC determined from two parallel measurements must not be greater than one step on the dilution scale. PABA and triazole antimycotic drug fluconazole were involved as the reference compounds.

[5] = system: four Gram-positive and four Gram-negative strains; test: Antibacterial activity; type: cell-based
[6] = system: Mtb. 331/88 and three non-tuberculous mycobacterial strains; test: Antimycobacterial activity; type: cell-based; settings: statement over four mycobacterial strains, time not stated
[7] = P. aeruginosa, 24 h incubation, read-out: MIC PA 24 h
[8] = P. aeruginosa, 48 h incubation, read-out: MIC PA 48 h
[9] = 336 h, 14 days incubation at 37 °C, read-out: MIC Mtb. 331/88 14 d
[10] = 504 h, 21 days incubation at 37 °C, read-out: MIC Mtb. 331/88 21 d
[11] = 24 h incubation, read-out: MIC SA 24 h
[12] = 48 h incubation, read-out: MIC SA 48 h
[13] = time not stated, read-out: MIC, S. epidermidis (1e MRSA, too)

Row | Structure (SMILES) | MIC [1, 7] [µM] | MIC [1, 8] [µM] | MIC [2, 9] [µM] | MIC [2, 10] [µM] | MIC KP 24 h [3] [µM] | MIC KP 48 h [3] [µM] | MIC (Candida tropicalis 156; 24 h, read-out: MIC CT 24 h) [µM] | MIC (Candida tropicalis 156; 48 h, read-out: MIC CT 48 h) [µM] | MIC [4, 11] [µM] | MIC [4, 12] [µM] | MIC (eight fungal strains) [µM] | MIC, antifungal activity (eight fungal strains) | MIC [5, 13] [µM] | MIC ([5]; Staphylococcus aureus, MRSA, time not stated, read-out: MIC, multiple Gram-positive strains including MRSA) [µM] | MIC ([1]; time not stated, read-out: MIC, P. aeruginosa) [µM] | MIC ([5]; converted from 62.5–125 µM, read-out: MIC, staphylococci) [µg/mL] | MIC ([5]; read-out: MIC, three staphylococcal strains) [µM] | MIC ([6]; Mycobacterium tuberculosis) [µM] | MIC, antibacterial activity ([5]; statement over the bacterial panel, time not stated) | MIC, antimycobacterial activity [6]
1 | O=C(O)c1ccc(N=Cc2cc(F)ccc2O)cc1 [1b, 4-[(5-Fluoro-2-hydroxybenzylidene)amino]benzoic acid] | > 500 | > 500 | 500 (≈ 130 µg/mL) | 500 (≈ 130 µg/mL) | >500 | >500 | > 500 | > 500 | > 500 | > 500 | > 500 | not translated into any antifungal action |  |  |  |  |  |  |  | 
2 | O=C(O)c1ccc(N=Cc2cc(Cl)ccc2O)cc1 [1c, 4-[(5-Chloro-2-hydroxybenzylidene)amino]benzoic acid] | > 500 | > 500 | 250 (≈ 68.9 µg/mL) | 500 (≈ 138 µg/mL) | >500 | >500 | 125 (≈ 34.5 µg/mL) | 125 (≈ 34.5 µg/mL) | > 500 | > 500 |  |  | ≥ 62.5 |  |  |  |  |  |  | 
3 | O=C(O)c1ccc(N=Cc2cc(Br)ccc2O)cc1 [1d, 4-[(5-Bromo-2-hydroxybenzylidene)amino]benzoic acid] | > 250 | > 250 | 250 (≈ 80 µg/mL) | 500 (≈ 160 µg/mL) | >250 | >250 | 125 (≈ 40 µg/mL) | 125 (≈ 40 µg/mL) | > 250 | > 250 |  |  | ≥ 62.5 |  |  |  |  |  |  | 
4 | O=C(O)c1ccc(N=Cc2cc(I)ccc2O)cc1 [1e, 4-[(2-Hydroxy-5-iodobenzylidene)amino]benzoic acid] | > 250 | > 250 | 250 (≈ 91.8 µg/mL) | 250 (≈ 91.8 µg/mL) | >250 | >250 | 125 (≈ 45.9 µg/mL) | 125 (≈ 45.9 µg/mL) | > 250 | > 250 | ≥ 31.2 |  | ≥ 62.5 |  |  |  |  |  |  | 
5 | O=C(O)c1ccc(N=Cc2cc([N+](=O)[O-])ccc2O)cc1 [1f, 4-[(2-Hydroxy-5-nitrobenzylidene)amino]benzoic acid] | > 500 | > 500 | 250 (≈ 71.6 µg/mL) | 500 (≈ 143 µg/mL) | >500 | >500 | > 500 | > 500 | 500 (≈ 143 µg/mL) | 500 (≈ 143 µg/mL) | ≥ 250 |  |  | ≥ 250 |  |  |  |  |  | 
6 | Cc1ccc(O)c(C=Nc2ccc(C(=O)O)cc2)c1 [1g, 4-[(2-Hydroxy-5-methylbenzylidene)amino]benzoic acid] | > 500 | > 500 | 500 (≈ 128 µg/mL) | 500 (≈ 128 µg/mL) | >500 | >500 | > 125 | > 125 | > 500 | > 500 |  | not translated into any antifungal action |  |  |  |  |  |  |  | 
7 | COc1ccc(O)c(C=Nc2ccc(C(=O)O)cc2)c1 [1h, 4-[(2-Hydroxy-5-methoxybenzylidene)amino]benzoic acid] | > 500 | > 500 | 250 (≈ 67.8 µg/mL) | 500 (≈ 136 µg/mL) | >500 | >500 | 500 (≈ 136 µg/mL) | 500 (≈ 136 µg/mL) | > 500 | > 500 | ≥ 250 |  |  |  |  |  |  |  |  | 
8 | CC(C)(C)c1ccc(O)c(C=Nc2ccc(C(=O)O)cc2)c1 [1j, 4-{[5-(Tert-butyl)-2-hydroxybenzylidene]amino}benzoic acid] | > 500 | > 500 | 250 (≈ 74.3 µg/mL) | 250 (≈ 74.3 µg/mL) | >500 | >500 | > 500 | > 500 | > 500 | > 500 |  | not translated into any antifungal action |  |  |  |  |  |  |  | 
9 | O=C(O)c1ccc(N=Cc2c(O)cccc2Cl)cc1 [1k, 4-[(2-Chloro-6-hydroxybenzylidene)amino]benzoic acid] | > 500 | > 500 | 250 (≈ 68.9 µg/mL) | 500 (≈ 138 µg/mL) | >500 | >500 | 62.5 (≈ 17.2 µg/mL) | 125 (≈ 34.5 µg/mL) | > 500 | > 500 |  |  |  |  |  |  |  |  |  | 
10 | O=C(O)c1ccc(N=Cc2ccc(Cl)cc2O)cc1 [1l, 4-[(4-Chloro-2-hydroxybenzylidene)amino]benzoic acid] | > 500 | > 500 | 250 (≈ 68.9 µg/mL) | 500 (≈ 138 µg/mL) | >500 | >500 | 500 (≈ 138 µg/mL) | > 500 | > 500 | > 500 | ≥ 250 |  |  |  |  |  |  |  |  | 
11 | O=C(O)c1ccc(N=Cc2cccc(Cl)c2O)cc1 [1m, 4-[(3-Chloro-2-hydroxybenzylidene)amino]benzoic acid] | > 500 | > 500 | 500 (≈ 138 µg/mL) | 500 (≈ 138 µg/mL) | >500 | >500 | 62.5 (≈ 17.2 µg/mL) | 62.5 (≈ 17.2 µg/mL) | > 500 | > 500 | ≥ 31.2 |  |  |  |  |  |  |  |  | 
12 | O=C(O)c1ccc(N=Cc2cc(Cl)cc(Cl)c2O)cc1 [1n, 4-[(3,5-Dichloro-2-hydroxybenzylidene)amino]benzoic acid] | > 500 | > 500 | 500 (≈ 155 µg/mL) | 500 (≈ 155 µg/mL) | >500 | >500 | 250 (≈ 77.5 µg/mL) | 250 (≈ 77.5 µg/mL) | 125 (≈ 38.8 µg/mL) | 125 (≈ 38.8 µg/mL) | ≥ 125 |  |  |  |  |  |  |  |  | 
13 | O=C(O)c1ccc(N=Cc2cc(Cl)cc(Br)c2O)cc1 [1o, 4-[(3-Bromo-5-chloro-2-hydroxybenzylidene)amino]benzoic acid] | > 500 | > 500 | 250 (≈ 88.6 µg/mL) | 500 (≈ 177 µg/mL) | 500 (≈ 177 µg/mL) | 500 (≈ 177 µg/mL) | 62.5 (≈ 22.2 µg/mL) | 62.5 (≈ 22.2 µg/mL) | 15.6 (≈ 5.54 µg/mL) | 15.6 (≈ 5.54 µg/mL) |  |  |  |  |  |  |  |  |  | 
14 | O=C(O)c1ccc(N=Cc2cc(Cl)cc(I)c2O)cc1 [1p, 4-[(5-Chloro-2-hydroxy-3-iodobenzylidene)amino]benzoic acid] | > 500 | > 500 | 250 (≈ 100 µg/mL) | 250 (≈ 100 µg/mL) | 125 (≈ 50.2 µg/mL) | 125 (≈ 50.2 µg/mL) | 31.2 (≈ 12.5 µg/mL) | 31.2 (≈ 12.5 µg/mL) | 15.6 (≈ 6.27 µg/mL) | 15.6 (≈ 6.27 µg/mL) |  |  |  |  |  |  |  |  |  | 
15 | O=C(O)c1ccc(N=Cc2cc(I)cc(I)c2O)cc1 [1q, 4-[(2-Hydroxy-3,5-diiodobenzylidene)amino]benzoic acid] | > 500 | > 500 | 250 (≈ 123 µg/mL) | 250 (≈ 123 µg/mL) | 500 (≈ 247 µg/mL) | 500 (≈ 247 µg/mL) | 15.6 (≈ 7.7 µg/mL) | 15.6 (≈ 7.7 µg/mL) | 62.5 (≈ 30.8 µg/mL) | 62.5 (≈ 30.8 µg/mL) |  |  |  |  |  |  |  |  |  | 
16 | O=C(O)c1ccc(N=Cc2ccc([N+](=O)[O-])o2)cc1 [1r, 4-{[(5-Nitrofuran-2-yl)methylene]amino}benzoic acid] | 500 (≈ 130 µg/mL) | 500 (≈ 130 µg/mL) | 62.5 (≈ 16.3 µg/mL) | 125 (≈ 32.5 µg/mL) | 500 (≈ 130 µg/mL) | 500 (≈ 130 µg/mL) | 250 (≈ 65.1 µg/mL) | 250 (≈ 65.1 µg/mL) | 62.5 (≈ 16.3 µg/mL) | 62.5 (≈ 16.3 µg/mL) |  |  |  |  | 500 (≈ 130 µg/mL) | 16.2 to 32.5 | 62.5 to 125 | 62.5 to 250 (≈ 16.3 to 65.1 µg/mL) |  | 
17 | O=C(O)c1ccc(NCc2ccccc2O)cc1 [1u, 4-[(2-Hydroxybenzyl)amino]benzoic acid] | > 500 | > 500 | 1000 (≈ 243 µg/mL) | 1000 (≈ 243 µg/mL) | >500 | >500 | > 500 | > 500 | > 500 | > 500 |  | no antimycotic potency |  |  |  |  |  |  | avoided any antibacterial action | only negligible antimycobacterial activity
